# Assays:
# Test in all cases: KAM-matrix competition in K562 lysate;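 as to 0.001 uM KAM: median log10 fold change of treatment over DMSO control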;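 as to 0.01 uM KAM: median log10 fold change of treatment over DMSO control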;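 as to 0.1 uM KAM: median log10 fold change of treatment over DMSO control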;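 as to 1 uM KAM: median log10 fold change of treatment over DMSO control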;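 as to 10 uM KAM: median log10 fold change of treatment over DMSO control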
# Format in all cases: binding
# AURKC = molecular target: T1, AURKC (Homo sapiens, UniProt Q9UQB9)
# T1 construct: endogenous in cells; host or cells: K562
# T1 sequence (Q9UQB9 1-309): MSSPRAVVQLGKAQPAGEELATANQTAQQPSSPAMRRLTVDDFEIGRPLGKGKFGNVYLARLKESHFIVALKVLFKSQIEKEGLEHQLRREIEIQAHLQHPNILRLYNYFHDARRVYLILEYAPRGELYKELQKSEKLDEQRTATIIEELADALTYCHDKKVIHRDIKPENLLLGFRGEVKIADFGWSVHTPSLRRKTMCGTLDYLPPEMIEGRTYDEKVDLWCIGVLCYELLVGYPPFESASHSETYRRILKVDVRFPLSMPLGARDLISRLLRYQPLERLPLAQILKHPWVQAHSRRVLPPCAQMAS
# Procedure: (§1) Supplement 12953_2017_125_MOESM1_ESM.zip/MS_Supp Info.xlsx, sheet "KAM" | column: 10 uM KAM; 1 uM KAM; 0.1 uM KAM; 0.01 uM KAM; 0.001 uM KAM; RB50
# PHKG2 = molecular target: T2, PHKG2 (Homo sapiens, UniProt P15735)
# T2 construct: endogenous in cells; host or cells: K562 cell lysate
# T2 sequence (P15735 1-406): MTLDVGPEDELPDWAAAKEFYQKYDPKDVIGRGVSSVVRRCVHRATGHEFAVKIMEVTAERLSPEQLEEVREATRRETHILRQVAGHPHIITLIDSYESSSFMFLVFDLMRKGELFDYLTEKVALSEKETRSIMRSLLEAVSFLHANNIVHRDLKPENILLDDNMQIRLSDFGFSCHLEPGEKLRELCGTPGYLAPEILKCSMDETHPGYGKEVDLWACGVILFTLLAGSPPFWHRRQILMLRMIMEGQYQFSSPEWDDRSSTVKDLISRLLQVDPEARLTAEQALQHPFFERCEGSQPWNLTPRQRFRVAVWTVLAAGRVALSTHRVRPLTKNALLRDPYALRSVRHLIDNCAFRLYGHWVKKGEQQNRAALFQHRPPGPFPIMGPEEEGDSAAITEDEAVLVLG
# Procedure: as §1
# RPS6KA4 = molecular target: T3, RPS6KA4 (Homo sapiens, UniProt O75676)
# T3 construct: endogenous in cells; host or cells: K562
# Procedure: as §1
# GUCY2F = molecular target: T4, GUCY2F (Homo sapiens, UniProt P51841);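 as to 0.001 uM KAM: median log10 fold change of treatment over DMSO control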;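 as to 0.01 uM KAM: median log10 fold change of treatment over DMSO control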;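 as to 0.1 uM KAM: median log10 fold change of treatment over DMSO control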;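 as to 1 uM KAM: median log10 fold change of treatment over DMSO control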;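 as to 10 uM KAM: median log10 fold change of treatment over DMSO control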
# T4 construct: endogenous in cells; host or cells: K562
# T4 sequence (P51841 51-1108): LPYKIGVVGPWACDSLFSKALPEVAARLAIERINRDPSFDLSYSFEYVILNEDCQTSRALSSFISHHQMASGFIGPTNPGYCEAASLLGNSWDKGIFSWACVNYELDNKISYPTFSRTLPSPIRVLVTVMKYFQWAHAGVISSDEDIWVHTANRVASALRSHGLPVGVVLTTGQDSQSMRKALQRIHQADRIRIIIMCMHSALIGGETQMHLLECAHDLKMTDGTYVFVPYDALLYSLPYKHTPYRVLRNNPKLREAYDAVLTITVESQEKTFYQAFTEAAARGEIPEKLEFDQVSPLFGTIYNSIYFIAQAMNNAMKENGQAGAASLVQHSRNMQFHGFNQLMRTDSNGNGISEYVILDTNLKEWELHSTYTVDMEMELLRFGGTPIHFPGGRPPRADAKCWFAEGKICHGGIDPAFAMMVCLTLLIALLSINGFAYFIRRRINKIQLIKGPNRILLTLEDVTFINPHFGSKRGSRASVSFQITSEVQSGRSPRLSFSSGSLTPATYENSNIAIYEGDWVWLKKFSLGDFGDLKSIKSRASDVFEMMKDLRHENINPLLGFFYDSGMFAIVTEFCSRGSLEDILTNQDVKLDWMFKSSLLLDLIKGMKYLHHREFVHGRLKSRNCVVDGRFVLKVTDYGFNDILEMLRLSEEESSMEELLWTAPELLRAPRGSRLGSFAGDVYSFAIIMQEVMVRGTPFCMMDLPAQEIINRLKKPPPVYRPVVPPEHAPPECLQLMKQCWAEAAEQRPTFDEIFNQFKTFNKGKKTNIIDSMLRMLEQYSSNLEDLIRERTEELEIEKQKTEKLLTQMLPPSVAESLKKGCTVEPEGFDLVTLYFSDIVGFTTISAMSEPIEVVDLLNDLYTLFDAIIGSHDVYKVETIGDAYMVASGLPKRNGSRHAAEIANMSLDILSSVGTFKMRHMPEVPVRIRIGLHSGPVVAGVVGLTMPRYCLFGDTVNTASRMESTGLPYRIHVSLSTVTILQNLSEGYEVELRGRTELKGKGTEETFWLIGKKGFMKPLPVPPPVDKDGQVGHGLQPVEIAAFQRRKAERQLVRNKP
# Procedure: as §1
# [1] = read-out: RB50 (the source's name)
# T3 sequence (O75676 whole entry): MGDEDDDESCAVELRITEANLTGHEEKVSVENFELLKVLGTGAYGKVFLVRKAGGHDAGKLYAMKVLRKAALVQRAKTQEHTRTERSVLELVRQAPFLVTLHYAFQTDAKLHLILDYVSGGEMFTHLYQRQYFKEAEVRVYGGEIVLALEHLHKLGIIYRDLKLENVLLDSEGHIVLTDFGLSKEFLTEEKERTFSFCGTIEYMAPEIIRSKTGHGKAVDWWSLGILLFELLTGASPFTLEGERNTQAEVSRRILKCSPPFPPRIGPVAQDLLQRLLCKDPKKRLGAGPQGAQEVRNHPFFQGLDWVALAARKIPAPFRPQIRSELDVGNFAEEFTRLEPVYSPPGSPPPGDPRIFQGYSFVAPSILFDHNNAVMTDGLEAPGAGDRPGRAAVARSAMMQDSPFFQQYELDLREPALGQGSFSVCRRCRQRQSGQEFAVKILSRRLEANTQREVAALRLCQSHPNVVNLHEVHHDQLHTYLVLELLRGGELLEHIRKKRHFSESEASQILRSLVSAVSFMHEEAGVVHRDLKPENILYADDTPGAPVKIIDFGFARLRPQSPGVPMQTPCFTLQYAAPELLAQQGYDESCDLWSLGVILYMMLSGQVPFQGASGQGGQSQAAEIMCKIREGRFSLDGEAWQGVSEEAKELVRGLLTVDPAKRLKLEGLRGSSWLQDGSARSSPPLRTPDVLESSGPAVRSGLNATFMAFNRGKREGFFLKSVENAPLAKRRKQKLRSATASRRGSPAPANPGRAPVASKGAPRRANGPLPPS
smiles,measurement,setting,value
N#CCc1ccc(Nc2nc(NCCCN)cc(Nc3cc(C4CC4)[nH]n3)n2)cc1 [KAM],median Log10 fold change,AURKC; 0.001 uM KAM,0.0006126
same,median Log10 fold change,AURKC; 0.01 uM KAM,-0.1035
same,median Log10 fold change,AURKC; 0.1 uM KAM,-0.4123
same,median Log10 fold change,AURKC; 1 uM KAM,-0.4901
same,median Log10 fold change,AURKC; 10 uM KAM,-0.3419
same,IC50,AURKC; [1],75 nM
same,median Log10 fold change,PHKG2; 0.001 uM KAM,0.003099
same,median Log10 fold change,PHKG2; 0.01 uM KAM,-0.03027
same,median Log10 fold change,PHKG2; 0.1 uM KAM,-0.2223
same,median Log10 fold change,PHKG2; 1 uM KAM,-0.4221
same,median Log10 fold change,PHKG2; 10 uM KAM,-0.5566
same,IC50,PHKG2; [1],338 nM
same,median Log10 fold change,RPS6KA4; 0.001 uM KAM,0.007656
same,median Log10 fold change,RPS6KA4; 0.01 uM KAM,-0.02452
same,median Log10 fold change,RPS6KA4; 0.1 uM KAM,-0.1561
same,median Log10 fold change,RPS6KA4; 1 uM KAM,-0.4146
same,median Log10 fold change,RPS6KA4; 10 uM KAM,-0.4828
same,IC50,RPS6KA4; [1],558 nM
same,IC50,"GUCY2F; KAM 0.001-10 uM, read-out: RB50 (the source's name)",> 10000 nM
same,0.001 uM KAM,GUCY2F; relative to 0 uM KAM = 0,-0.02463
same,0.01 uM KAM,GUCY2F; relative to 0 uM KAM = 0,-0.02113
same,0.1 uM KAM,GUCY2F; relative to 0 uM KAM = 0,0.03818
same,1 uM KAM,GUCY2F; relative to 0 uM KAM = 0,0.1179
same,10 uM KAM,GUCY2F; relative to 0 uM KAM = 0,-0.02163

# — publication PMC5513037, “Examining the influence of specificity ligands and ATP-competitive ligands on the overall effectiveness of bivalent kinase inhibitors” (Proteome Science, 2017)
